Test results published in ChEMBL document CHEMBL4622878, “Cytotoxic Activity of Germacrane-Type Sesquiterpene Lactones from Dimerostemma aspilioides” (J Nat Prod, 2020).
Calls of active or inactive are those of the source. The rule behind the calls is not given here.

Columns and labels:
[1] = test system: K562; assay: Induction of apoptosis in human K562 cells assessed as necrotic cells at 2.3 uM after 24 hrs by Annexin V-FITC/PI double staining based flow cytometry analysis (reference value: 0.085%); assay type: functional
[2] = test system: K562; assay: Induction of apoptosis in human K562 cells assessed as viable cells at 2.3 uM after 48 hrs by Annexin V-FITC/PI double staining based flow cytometry analysis (Rvb =97.8%); assay type: functional; conditions: K562, 48 h, read-out: Activity
[3] = test system: CCRF-CEM; assay: Cytotoxicity against human CCRF-CEM cells after 48 hrs by MTT assay; assay type: functional, cell-based
[4] = test system: K562-Lucena 1; assay: Induction of cell cycle arrest in human K562-Lucena 1 cells assessed as viable cells at 5.1 uM after 48 hrs by propidium iodide staining based flow cytometric analysis (reference value: 87.1%); assay type: functional; conditions: K562-Lucena 1, 48 h, read-out: Activity
[5] = test system: K562-Lucena 1; assay: Induction of cell cycle arrest in human K562-Lucena 1 cells assessed as early apoptotic cells at 5.1 uM after 48 hrs by propidium iodide staining based flow cytometric analysis (reference value: 7.57%); assay type: functional
[6] = test system: K562-Lucena 1; assay: Induction of morphological changes in human K562-Lucena 1 cells assessed as appearance of apoptotic bodies at 5.1 uM incubated for 48 hrs by DAPI staining based fluorescence microscopy; assay type: functional, cell-based
[7] = test system: K562-Lucena 1; assay: Induction of cell cycle arrest in human K562-Lucena 1 cells assessed as early apoptotic cells at 5.1 uM after 24 hrs by propidium iodide staining based flow cytometric analysis (reference value: 7.79%); assay type: functional
[8] = test system: K562-Lucena 1; assay: Induction of cell cycle arrest in human K562-Lucena 1 cells assessed as late apoptotic cells at 5.1 uM after 48 hrs by propidium iodide staining based flow cytometric analysis (reference value: 3.23%); assay type: functional
[9] = test system: K562-Lucena 1; assay: Induction of cell cycle arrest in human K562-Lucena 1 cells assessed as necrotic cells at 5.1 uM after 24 hrs by propidium iodide staining based flow cytometric analysis (reference value: 1.03%); assay type: functional
[10] = test system: K562; assay: Induction of apoptosis in human K562 cells assessed as early apoptotic cells at 2.3 uM after 24 hrs by Annexin V-FITC/PI double staining based flow cytometry analysis (reference value: 2.76%); assay type: functional
[11] = test system: K562; assay: Induction of morphological changes in human K562 cells assessed as appearance of apoptotic bodies at 2.3 uM incubated for 48 hrs by DAPI staining based fluorescence microscopy; assay type: functional, cell-based
[12] = test system: K562-Lucena 1; assay: Induction of cell cycle arrest in human K562-Lucena 1 cells assessed as increase in hypodiploid cells at sub-G1 phase at 5.1 uM after 48 hrs by propidium iodide staining based flow cytometric analysis; assay type: functional
[13] = test system: K562; assay: Induction of cell cycle arrest in human K562 cells assessed as decrease in accumulation of cells at G1 phase at 2.3 uM after 24 hrs by propidium iodide staining based flow cytometric analysis; assay type: functional
[14] = test system: K562; assay: Induction of apoptosis in human K562 cells assessed as late apoptotic cells at 2.3 uM after 24 hrs by Annexin V-FITC/PI double staining based flow cytometry analysis (reference value: 0.79%); assay type: functional
[15] = test system: K562; assay: Induction of apoptosis in human K562 cells assessed as viable cells at 2.3 uM after 24 hrs by Annexin V-FITC/PI double staining based flow cytometry analysis (Rvb =96.4%); assay type: functional; conditions: K562, 24 h, read-out: Activity
[16] = test system: K562; assay: Induction of apoptosis in human K562 cells assessed as late apoptotic cells at 2.3 uM after 48 hrs by Annexin V-FITC/PI double staining based flow cytometry analysis (reference value: 0.41%); assay type: functional
[17] = test system: K562; assay: Induction of DNA fragmentation in human K562 cells at 2.3 uM incubated for 48 hrs by DAPI staining based fluorescence microscopy; assay type: functional, cell-based
[18] = test system: K562-Lucena 1; assay: Induction of cell cycle arrest in human K562-Lucena 1 cells assessed as late apoptotic cells at 5.1 uM after 24 hrs by propidium iodide staining based flow cytometric analysis (reference value: 3.15%); assay type: functional
[19] = test system: K562-Lucena 1; assay: Induction of cell cycle arrest in human K562-Lucena 1 cells assessed as accumulation of cells at G2/M phase at 5.1 uM after 24 hrs by propidium iodide staining based flow cytometric analysis (reference value: 3.3 +/- 0.1%); assay type: functional
[20] = test system: K562; assay: Induction of apoptosis in human K562 cells assessed as necrotic cells at 2.3 uM after 48 hrs by Annexin V-FITC/PI double staining based flow cytometry analysis (reference value: 0.13%); assay type: functional
[21] = test system: K562-Lucena 1; assay: Induction of cell cycle arrest in human K562-Lucena 1 cells at 5.1 uM after 48 hrs by propidium iodide staining based flow cytometric analysis; assay type: functional
[22] = test system: K562-Lucena 1; assay: Induction of morphological changes in human K562-Lucena 1 cells assessed as appearance of condensed chromatin at 5.1 uM incubated for 48 hrs by DAPI staining based fluorescence microscopy; assay type: functional, cell-based
[23] = test system: K562; assay: Cytotoxicity against human K562 cells after 48 hrs by MTT assay; assay type: functional, cell-based; conditions: K562, 48 h
[24] = test system: K562-Lucena 1; assay: Induction of cell cycle arrest in human K562-Lucena 1 cells assessed as necrotic cells at 5.1 uM after 48 hrs by propidium iodide staining based flow cytometric analysis (reference value: 2.15%); assay type: functional
[25] = test system: K562-Lucena 1; assay: Induction of cell cycle arrest in human K562-Lucena 1 cells assessed as viable cells at 5.1 uM after 24 hrs by propidium iodide staining based flow cytometric analysis (reference value: 88%); assay type: functional; conditions: K562-Lucena 1, 24 h, read-out: Activity
[26] = test system: K562; assay: Induction of morphological changes in human K562 cells assessed as appearance of condensed chromatin at 2.3 uM incubated for 48 hrs by DAPI staining based fluorescence microscopy; assay type: functional, cell-based
[27] = test system: K562-Lucena 1; assay: Cytotoxicity against human K562-Lucena 1 cells after 48 hrs by MTT assay; assay type: functional, cell-based; conditions: K562-Lucena 1, 48 h
[28] = test system: K562-Lucena 1; assay: Induction of DNA fragmentation in human K562-Lucena 1 cells at 5.1 uM incubated for 48 hrs by DAPI staining based fluorescence microscopy; assay type: functional, cell-based
[29] = test system: K562-Lucena 1; assay: Induction of cell cycle arrest in human K562-Lucena 1 cells assessed as decrease in accumulation of cells at G1 phase at 5.1 uM after 24 hrs by propidium iodide staining based flow cytometric analysis; assay type: functional
[30] = test system: ADR5000 cell line; assay: Cytotoxicity against human CEM/ADR5000 cells after 48 hrs by MTT assay; assay type: functional, cell-based; conditions: ADR5000, 48 h
[31] = test system: K562; assay: Induction of cell cycle arrest in human K562 cells assessed as decrease in accumulation of cells at S phase at 2.3 uM after 24 hrs by propidium iodide staining based flow cytometric analysis; assay type: functional
[32] = test system: K562; assay: Induction of cell cycle arrest in human K562 cells at 2.3 uM after 48 hrs by propidium iodide staining based flow cytometric analysis; assay type: functional
[33] = test system: K562; assay: Induction of apoptosis in human K562 cells assessed as early apoptotic cells at 2.3 uM after 48 hrs by Annexin V-FITC/PI double staining based flow cytometry analysis (reference value: 1.67%); assay type: functional
[34] = test system: K562; assay: Induction of cell cycle arrest in human K562 cells assessed as accumulation of cells at G2/M phase at 2.3 uM after 24 hrs by propidium iodide staining based flow cytometric analysis (reference value: 0.4 +/- 0.2%); assay type: functional
[35] = test system: K562; assay: Induction of cell cycle arrest in human K562 cells assessed as increase in hypodiploid cells at sub-G1 phase at 2.3 uM after 48 hrs by propidium iodide staining based flow cytometric analysis; assay type: functional
[36] = test system: PBMC; assay: Cytotoxicity against PBMC (unknown origin) after 48 hrs by MTT assay; assay type: cell-based

C=C(C)C(=O)O[C@H]1C/C(CO)=C/CC[C@@]2(C)O[C@H]2[C@H]2OC(=O)C(=C)[C@@H]21 was tested, and the Activity [1] was 0.42%, the viability at 2.3 µM [2] was 66.4% and the IC50 [3] was 420 nM. The viability at 5.1 µM [4] was 54.5%, the Activity [5] was 31.4% and the Activity [6] was “Active”. For the same compound, the Activity [7] was 14.7%, the Activity [8] was 10.8% and the Activity [9] was 1.38%. For the same compound, the Activity [10] was 2.26%, the Activity [11] was “Active” and the Activity [12] was “Active”. For the same compound, the Activity [13] was “inactive”, the Activity [14] was 0.64% and the viability at 2.3 µM [15] was 96.7%. The Activity [16] was 2.38%, the Activity [17] was “Active” and the Activity [18] was 3.46%. The Activity [19] was 23.2%, the Activity [20] was 0.56% and the Activity [21] was “inactive”. The Activity [22] was “Active”, the IC50 [23] was 2300 nM and the Activity [24] was 3.29%. For the same compound, the viability at 5.1 µM [25] was 80.4%, the Activity [26] was “Active” and the IC50 [27] was 5100 nM. For the same compound, the Activity [28] was “Active”, the Activity [29] was “Active” and the IC50 [30] was 400 nM. For the same compound, the Activity [31] was “inactive”, the Activity [32] was “inactive” and the Activity [33] was 30.6%. The Activity [34] was 15.1%, the Activity [35] was “Active” and the IC50 [36] was 79900 nM.
